Patent publication US4595689A, “4-(8-bromodibenz[b,f]oxepin-10-yl)-1,2,3,6-tetrahydro-1-methylpyridine and 4-(2-bromodibenzo[a,d]cyclophetatriene-11-yl)-1,2,3,6-tetrahydro-1-methy lpyridine for dermal inflammation” (Hoffmann-LaRoche Inc., priority 1984, dated 1986)

Test system: cantharidin-induced inflammation of rat ear
Assay: Cantharidin induced inflammation in the rat (topical activity, ear skin punch weight)
Format: in vivo, rat (Charles River CD, 21-day-old male)
Settings: topical dose 100 μg, with 400 μg cantharidin in 0.1 ml vehicle on rat ears; 72 hours
Protocol: CANTHARIDIN INDUCED INFLAMMATION IN THE RAT
A solvent vehicle was prepared which was used to apply cantharidin or cantharidin and test compound to rats. The solvent vehicle was a solution of 1 part ethanol, 1.5 parts collodion, 2 parts acetone and 3 parts diethylether. When it was desired to apply cantharidin to rats, cantharidin was added to the solvent vehicle in such an amount that there were 400 μg of cantharidin in 0.1 ml of solvent vehicle. When it was desired to apply cantharidin and test compound to rats, cantharidin and test compound were added to the solvent vehicle in such amounts that there were both 400 μg of cantharidin and 100 μg of test compound in 0.1 ml of solvent vehicle. Cantharidin or cantharidin plus the test compound at a dose of 100 μg were applied topically to the outer surface of the ears of Charles River CD 21-day-old male rats in a volume of 0.1 ml of solvent vehicle described above. Separate groups of rats were treated with solvent vehicle alone, cantharidin alone, and cantharidin plus test compound. Autopsy was carried out 72 hours after cantharidin administration. Uniform punches were obtained through the site of application and weighed. Weight changes reflect effects on both the fluid and tissue components of the inflammatory process. […]

## CN1CC=C(C2=Cc3ccccc3Cc3ccc(Br)cc32)CC1 [4-(2-bromodibenzo[a,d]cycloheptatriene-11-yl)-1,2,3,6-tetrahydro-1-methylpyridine]
  % Inhibition of Inflammation: 37%

## CN1CC=C(C2=Cc3ccccc3Oc3ccc(Br)cc32)CC1 [4-(8-bromodibenz[b,f]oxepin-10-yl)-1,2,3,6-tetrahydro-1-methylpyridine]
  % Inhibition of Inflammation: 36%
